Measured values as given in US5747493A, “Dopamine re-uptake inhibitor” (Pola Chemical Industries, Inc., priority 1993, dated 1998).
Where a name gives a salt, the structure may show the parent alone.

Target: T1, [^3 H] GBR12935 binding in rat strialal crude membrane (Rattus norvegicus, UniProt P23977)
T1 construct: from tissue; host or cells: corpus striatum of Wistar male rat, crude membrane
Assay: [^3 H] GBR12935 binding in rat striatal crude membrane
Parameters: species or system rat (Wistar male)
Conditions: 1 nM [^3 H] GBR12935, rat striatal crude membrane; for IC50: 4° C., 80 minutes
Method: After a cold 50 mM Tris-citrate buffer (pH 7.4, including 120 mM NaCl and 4 mM MgCl2) was added to a corpus striatum taken out of a Wistar male rat aged 12-13 weeks (while keeping on ice) to homogenize the resultant mixture, the homogenate was subjected twice to centrifugation under chilling for 20 minutes at 48,000 g. The final sedimentation residue thus obtained was suspended again in the same buffer as that used above to conserve the suspension at -80° C.
After thawing this frozen suspension, the thawed suspension was diluted to one thousandth of the amount of the tissue with the same buffer as that used above. To 0.8 ml of this crude membrane sample, were added [^3 H] GBR12935 (final concentration: 1 nM) and individual test substances and amantadine which is in clinical use at present (developing the concentration within a range of from 10^-3 to 10^-9 M) to 1 ml in total. Each of the resulting sample mixtures was incubated at 4° C. for 80 minutes in a plastic tube. After the incubation, the mixture was filtered by means of suction on a glass filter (Whatman GP/B) soaked in a 0.1% BSA, and the filter was washed three times with 3 ml of cold 0.9% NaCl. The thus-obtained filter was placed in a vial, and 10 ml of Aquazol-2 were added to conserve the filter overnight. Thereafter, the radioactivity of the sample was measured by a liquid scintillation counter. An IC50 value and a Hill coefficient were determined from the obtained uptake inhibition curve as to each of the test samples.

T1 sequence (P23977 whole entry): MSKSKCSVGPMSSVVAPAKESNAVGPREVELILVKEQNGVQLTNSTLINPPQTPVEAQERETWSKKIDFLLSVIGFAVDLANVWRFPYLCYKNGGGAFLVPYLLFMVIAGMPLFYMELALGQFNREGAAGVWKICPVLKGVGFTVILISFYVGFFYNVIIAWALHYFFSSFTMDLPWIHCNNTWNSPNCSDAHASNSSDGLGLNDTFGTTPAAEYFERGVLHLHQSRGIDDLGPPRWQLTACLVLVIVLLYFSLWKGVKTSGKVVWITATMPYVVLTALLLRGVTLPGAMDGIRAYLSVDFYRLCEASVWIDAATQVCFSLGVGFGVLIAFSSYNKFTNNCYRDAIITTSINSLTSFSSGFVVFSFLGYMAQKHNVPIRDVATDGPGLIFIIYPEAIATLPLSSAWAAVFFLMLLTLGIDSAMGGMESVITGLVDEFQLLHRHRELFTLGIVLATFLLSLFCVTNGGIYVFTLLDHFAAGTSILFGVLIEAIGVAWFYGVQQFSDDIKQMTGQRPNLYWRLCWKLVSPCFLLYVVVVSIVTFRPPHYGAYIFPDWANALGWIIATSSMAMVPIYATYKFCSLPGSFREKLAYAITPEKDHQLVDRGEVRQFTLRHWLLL

| SMILES | Hill coefficient (nH) | IC50 [µM] | IC50 (amantadine line in μM) [µM] |
| --- | --- | --- | --- |
| OC(CNc1ccccc1)CN1CCN(CCCC(c2ccc(F)cc2)c2ccc(F)cc2)CC1 (single isomer, unassigned; (+)) [Compound 16, (+)-1-[4,4-Bis(4-fluoro-phenyl)butyl]-4-(2-hydroxy-3-phenylaminopropyl)piperazinedihydrochloride] | 0.57 ± 0.04 | 0.002 ± 0.00053 | – |
| OC(CNc1ccccc1)CN1CCN(CCCC(c2ccc(F)cc2)c2ccc(F)cc2)CC1 (single isomer, unassigned; (-)) [Compound 15, (-)-1-[4,4-Bis(4-fluoro-phenyl)butyl]-4-(2-hydroxy-3-phenylaminopropyl)piperazinedihydrochloride] | 0.72 ± 0.05 | 0.002 ± 0.0001 | – |
| NC12CC3CC(CC(C3)C1)C2 [Amantadine, amantadine, reference compound] | 1.36 ± 0.08 | – | 819 ± 30.9 |
| OC(CNc1ccccc1)CN1CCN(C(c2ccc(F)cc2)c2ccc(F)cc2)CC1 (centres unmarked) [Compound 2, 1-[Bis(4-fluorophenyl)methyl]-4-(2-hydroxy-3-phenylamino-propyl)piperazine dihydro-chloride] | 0.66 ± 0.05 | 0.02 ± 0.003 | – |
| Cl.Cl.OC(CNc1ccc(F)cc1)CN1CCN(CCCC(c2ccc(F)cc2)c2ccc(F)cc2)CC1 (centres unmarked) [Compound 9, 1-[4,4-Bis(4-fluorophenyl)-butyl]-4-[3-(4-fluorophenyl-amino)-2-hydroxypropyl]-piperazine dihydrochloride] | 0.74 ± 0.01 | 0.004 ± 0.00023 | – |
| Cl.Cl.OC(CNc1ccc(Cl)cc1)CN1CCN(CCCC(c2ccc(F)cc2)c2ccc(F)cc2)CC1 (centres unmarked) [Compound 10, 1-[4,4-Bis(4-fluorophenyl)-butyl]-4-[3-(4-chlorophenyl-amino)-2-hydroxypropyl]-piperazine dihydrochloride] | 0.82 ± 0.03 | 0.003 ± 0.00032 | – |
| COc1cc(NCC(O)CN2CCN(CCCC(c3ccc(F)cc3)c3ccc(F)cc3)CC2)cc(OC)c1OC.O=C(O)/C=C\C(=O)O.O=C(O)/C=C\C(=O)O (centres unmarked) [Compound 11, 1-[4,4-Bis(4-fluorophenyl)-butyl]-4-[2-hydroxy-3-(3,4,5-trimethoxyphenylamino)propyl]-piperazine dimaleate] | 0.79 ± 0.04 | 0.043 ± 0.00532 | – |
| OC(CNc1ccc(Cl)c(Cl)c1)CN1CCN(CCCC(c2ccc(F)cc2)c2ccc(F)cc2)CC1 (centres unmarked) [Compound 12, 1-[4,4-Bis(4-fluorophenyl)-buyl]-4-[3-(3,4-dichloro-phenylamino)-2-hydroxy-propyl]piperazinedihydrochloride] | 0.74 ± 0.03 | 0.012 ± 0.00072 | – |
| COc1ccc(NCC(O)CN2CCN(CCCC(c3ccc(F)cc3)c3ccc(F)cc3)CC2)cc1.Cl.Cl (centres unmarked) [Compound 13, 1-[4,4-Bis(4-fluorophenyl)-butyl]-4-(2-hydroxy-3-(4-methoxyphenylamino)propyl]-piperazine dihydrochloride] | 0.52 ± 0.02 | 0.003 ± 0.00016 | – |
| Cc1ccc(NCC(O)CN2CCN(CCCC(c3ccc(F)cc3)c3ccc(F)cc3)CC2)cc1.Cl.Cl (centres unmarked) [Compound 14, 1-[4,4-Bis(4-fluorophenyl)-butyl]-4-[2-hydroxy-3-(4-methylphenylamino)propyl]-piperazine dihydrochloride] | 0.65 ± 0.03 | 0.004 ± 0.00041 | – |
| O=C(O)/C=C\C(=O)O.O=C(O)/C=C\C(=O)O.O=C(O)/C=C\C(=O)O.OC(CNc1ccncc1)CN1CCN(CCCC(c2ccc(F)cc2)c2ccc(F)cc2)CC1 (centres unmarked) [Compound 17, 1-[4,4-Bis(4-fluorophenyl)-butyl]-4-[2-hydroxy-3-(4-pyridylamino)propyl]-piperazine trimaleate] | 0.74 ± 0.04 | 0.034 ± 0.002 | – |
| OC(CNc1ccccc1)CN1CCN(CCC(c2ccc(F)cc2)c2ccc(F)cc2)CC1 (centres unmarked) [Compound 18, 1-[3,3-Bis(4-fluorophenyl)-propyl]-4-(2-hydroxy-3-phenylaminopropyl)piperazinedihydrochloride] | 0.67 ± 0.04 | 0.007 ± 0.00065 | – |
| OC(CNc1ccccc1)CN1CCN(CC(c2ccccc2)c2ccccc2)CC1 (centres unmarked) [Compound 19, 1-(2,2-Diphenylethyl)-4-(2-hydroxy-3-phenylamino-propyl)piperazinedihydrochloride] | 0.76 ± 0.02 | 0.028 ± 0.002 | – |
| Cl.Cl.O=[N+]([O-])c1ccc(NCC(O)CN2CCN(CCCC(c3ccc(F)cc3)c3ccc(F)cc3)CC2)cc1 (centres unmarked) [Compound 20, 1-[4,4-Bis(4-fluorophenyl)-butyl]-4-[2-hydroxy-3-(4-nitrophenylamino)propyl]-piperazine dihydrochloride] | 0.69 ± 0.04 | 0.008 ± 0.0005 | – |
| OC(CNc1ccccc1)CN1CCN(CCCCC(c2ccc(F)cc2)c2ccc(F)cc2)CC1 (centres unmarked) [Compound 21, 1-[5,5-Bis(4-fluorophenyl)-pentyl]-4-(2-hydroxy-3-phenylaminopropyl)piperazinedihydrochloride] | 0.89 ± 0.07 | 0.006 ± 0.00032 | – |
| CC(C)(C)c1cc(NCC(O)CN2CCN(CCCC(c3ccc(F)cc3)c3ccc(F)cc3)CC2)cc(C(C)(C)C)c1O (centres unmarked) [Compound 22, 1-[4,4-Bis(4-fluorophenyl)-butyl]-4-[3-(3,5-di-tert-butyl-4-hydroxyphenylamino)-2-hydroxypropyl]piperazinetrimaleate] | 0.78 ± 0.07 | 0.087 ± 0.007 | – |
| Nc1ccc(NCC(O)CN2CCN(CCCC(c3ccc(F)cc3)c3ccc(F)cc3)CC2)cc1 (centres unmarked) [Compound 23, 1-[3-(4-Aminophenylamino)-2-hydroxypropyl]-4-(4,4-bis(4-fluorophenyl)butyl]piperazinetrimaleate] | 0.64 ± 0.09 | 0.037 ± 0.009 | – |
| CN(C)c1ccc(NCC(O)CN2CCN(CCCC(c3ccc(F)cc3)c3ccc(F)cc3)CC2)cc1 (centres unmarked) [Compound 24, 1-[4,4-Bis(4-fluorophenyl)-butyl]-4-[3-(4-dimethyl-aminophenylamino)-2-hydroxy-propyl]piperazine dimaleate] | 0.94 ± 0.10 | 0.109 ± 0.019 | – |
| O=C(O)/C=C\C(=O)O.O=C(O)/C=C\C(=O)O.Oc1ccc(NCC(O)CN2CCN(CCCC(c3ccc(F)cc3)c3ccc(F)cc3)CC2)cc1 (centres unmarked) [Compound 25, 1-[4,4-Bis(4-fluorophenyl)-butyl]-4-[2-hydroxy-3-(4-hydroxyphenylamino)propyl]-piperazine dimaleate] | 0.63 ± 0.09 | 0.01 ± 0.003 | – |
